Assay results: patent publication US10774051B2, “6-membered heterocyclic derivatives and pharmaceutical composition comprising the same” (Shionogi & Co., Ltd., priority 2015, dated 2020)

molecular target: human P2X7 receptor (Homo sapiens, UniProt Q99572, R270H/Y155H); test: Evaluation of human P2X7 receptor inhibitory activity (Yo-Pro uptake, BzATP stimulation, FLIPR TETRA); assay type: cell-based; conditions: 1321N1 cells stably expressing human P2X7 receptor; BzATP stimulation, Yo-Pro uptake; read-out: IC50 (antagonistic activity for the human P2X7 receptor)
Summary of the method: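 1321N1 cells stably expressing human P2X7 (T606C/G952A SNP variant), in HBSS buffer pH 7.4-7.5 with Yo-Pro, stimulated with BzATP; compound added 8 min after agonist. Fluorescence followed for 20 min on FLIPR; max-minus-min change gave % inhibition, IC50 by logistic fit.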

| Compound | IC50 |
| --- | --- |
| COc1cn(Cc2ccc(F)c(F)c2)c(Nc2cccc(OC(F)F)c2C)nc1=O [Compound I-0480] | 4 nM |
| COc1cn(Cc2ccc(F)c(Cl)c2)c(Nc2ccc3oc(C)cc3c2C)nc1=O [Compound I-0825] | 9 nM |
| COc1cc(C)c(Nc2ncc(OC)c(=O)n2Cc2ccc(F)c(Cl)c2)cc1C [Compound I-0985] | 65 nM |
| COc1cn(Cc2ccccc2)c(Nc2cc3nc(C)sc3cc2C)nc1=O [Compound I-0744] | 180 nM |
| Cc1c(Cl)cccc1Nc1nc(=O)c(N)cn1Cc1ccccc1 [Compound I-0022] | 17 nM |
| COc1cn(Cc2ccccc2C)c(Nc2cccc(C(F)(F)F)c2Cl)nc1=O [Compound I-0014] | 250 nM |
| COc1cccc(Cn2cc(OC)c(=O)nc2Nc2cccc(Cl)c2C)c1 [Compound I-0052] | 130 nM |
| COc1cn(Cc2ccccc2F)c(Nc2cc(C)c(C)cc2C)nc1=O [Compound I-0176] | 13 nM |
| COc1cn(Cc2ccc(F)c(C)c2)c(Nc2cccc(Cl)c2C)nc1=O [Compound I-0520] | 9 nM |

same assay, conditions: 1321N1 cells stably expressing human P2X7 receptor; BzATP stimulation, Yo-Pro uptake; read-out: IC50 (antagonistic activity for the human P2X7 receptor), class symbol

| Compound | IC50 |
| --- | --- |
| CCc1cc(Cl)ccc1Nc1nc(=O)c(OC)cn1Cc1ccccc1 [Compound I-0161] | 10 to 100 nM |
| COc1cn(Cc2cc(F)cc(C(F)(F)F)c2)c(Nc2cccc(Cl)c2C)nc1=O [Compound I-0582] | 100 to 500 nM |
| COc1cc(C)c(Nc2nc(=O)c(F)cn2Cc2ccccc2)cc1OC [Compound I-0183] | 10 to 100 nM |
| COc1cn(Cc2ccccc2)c(Nc2cc(F)ccc2C)nc1=O [Compound I-0090] | 100 to 500 nM |
| COc1cc(C)cc(Nc2nc(=O)c(OC)cn2Cc2ccccc2)c1C [Compound I-0281] | < 10 nM |
| COc1cn(Cc2ccccc2)c(Nc2cccc(OC(F)F)c2C)nc1=O [Compound I-0093] | 10 to 100 nM |
| COc1cn(Cc2ccc(F)c(Cl)c2)c(Nc2ccc(OC(C)C)cc2C)nc1=O [Compound I-0532] | 10 to 100 nM |
| COc1cn(Cc2ccccc2)c(Nc2ccc3[nH]ccc3c2C)nc1=O [Compound I-0583] | < 10 nM |
| COc1cn(Cc2ccccc2)c(NCc2ccccc2N(C)C)nc1=O [Compound I-0067] | 500 to 1000 nM |
| COc1cn(Cc2ccccc2)c(Nc2cc(C)cc(C)c2C)nc1=O [Compound I-0298] | 10 to 100 nM |
| COc1cn(Cc2ccc(F)c(Cl)c2)c(Nc2cc(C)ccc2C)nc1=O [Compound I-0334] | < 10 nM |
| COc1cn(Cc2cc(C)cc(F)c2)c(Nc2cccc(Cl)c2C)nc1=O [Compound I-0461] | < 10 nM |
| COc1cn(Cc2ccc(F)c(F)c2)c(Nc2cc3c(cc2C)OCCO3)nc1=O [Compound I-0291] | 10 to 100 nM |
| COc1cn(Cc2ccc(F)c(Cl)c2)c(Nc2cc(-c3nc4ncccc4o3)ccc2C)nc1=O [Compound I-0417] | 100 to 500 nM |
| COc1ccc(Nc2nc(=O)c(OC)cn2Cc2cccc(F)c2)c(C)c1 [Compound I-0249] | < 10 nM |
| COc1cn(Cc2ccccc2)c(Nc2cc(S(C)(=O)=O)ccc2C)nc1=O [Compound I-0513] | 100 to 500 nM |
| COc1cn(Cc2ccc(F)c(Cl)c2)c(Nc2ccc(Cl)cc2C)nc1=O [Compound I-0564] | 10 to 100 nM |
| CCc1cc(OC)c(OC)cc1Nc1nc(=O)c(F)cn1Cc1ccccc1 [Compound I-0266] | < 10 nM |
| COc1cn(Cc2ccccc2)c(NCc2c(C)cccc2C)nc1=O [Compound I-0131] | 100 to 500 nM |
| Cc1cccc(Nc2nc(=O)c(C(=O)O)cn2Cc2ccccc2)c1Cl [Compound I-0112] | 10 to 100 nM |
| Cc1cc(C)c(Nc2nc(=O)c(C(=O)NCC(=O)N(C)C)cn2Cc2ccccc2)cc1C [Compound I-0226] | 10 to 100 nM |
| COc1cc(C)c(Nc2nc(=O)c(OC)cn2Cc2ccccc2)cc1C [Compound I-0220] | < 10 nM |
| COc1cn(Cc2cc(F)cc(Cl)c2)c(Nc2cc(C)c(OC(F)F)cc2C)nc1=O [Compound I-0529] | 10 to 100 nM |
| COc1cn(Cc2ccc(F)c(Cl)c2)c(Nc2cc(C)c(OC(F)F)cc2C)nc1=O [Compound I-0244] | < 10 nM |

same assay, conditions: antagonistic activity for the human P2X7 receptor; read-out: IC50

| Compound | IC50 |
| --- | --- |
| COc1cc(Nc2nc(=O)c(F)cn2Cc2cc(F)c(F)c(F)c2)c(C)cc1Cl [Compound I-1006] | < 10 nM |
| COc1ccc(C)c(Nc2nc(=O)c(C#N)cn2Cc2cc(F)c(F)c(F)c2)c1 [Compound I-1151] | 10 to 100 nM |
| COc1cn(Cc2ccc(F)c(F)c2)c(Nc2cc(S(C)(=O)=O)c(C)cc2C)nc1=O [Compound I-0605] | 10 to 100 nM |
| COC(=O)/C=C/c1ccc(C)c(Nc2nc(=O)c(OC)cn2Cc2cc(F)c(F)c(F)c2)c1 [Compound I-1079] | 10 to 100 nM |
| COc1cccc(Nc2nc(=O)c(OC)cn2Cc2cccc(F)c2)c1C [Compound I-0642] | < 10 nM |
| O=c1nc(Nc2cccc3c(O)cccc23)n(Cc2cc(F)cc(F)c2)cc1F [Compound I-1114] | < 10 nM |
| COc1cn(Cc2ccc(F)c(F)c2)c(Nc2cc(OC3CC3)ccc2C)nc1=O [Compound I-0890] | 10 to 100 nM |
| COc1cn(Cc2cc(F)cc(Cl)c2)c(Nc2cc(Cl)c(Cl)cc2C)nc1=O [Compound I-0666] | 100 to 500 nM |
| COc1cn(Cc2cc(F)c(F)c(F)c2)c(Nc2ccccc2C)nc1=O [Compound I-1097] | 10 to 100 nM |
| COc1cc(Nc2nc(=O)c(OC)cn2Cc2cc(F)c(F)c(F)c2)c(C)cc1F [Compound I-0863] | < 10 nM |
| COCc1cn(Cc2cc(F)c(F)c(F)c2)c(Nc2cc(CO)ccc2C)nc1=O [Compound I-1152] | < 10 nM |
| O=c1nc(Nc2cccc3[nH]ccc23)n(Cc2cc(F)c(F)c(F)c2)cc1F [Compound I-1023] | < 10 nM |
| COc1cc(Nc2nc(=O)c(F)cn2Cc2cc(F)c(F)c(F)c2)c(C)nc1F [Compound I-1117] | 10 to 100 nM |
| CCc1ccc(C)c(Nc2nc(=O)c(F)cn2Cc2cc(F)c(F)c(F)c2)c1 [Compound I-1226] | < 10 nM |
| COc1cn(Cc2cc(F)cc(Cl)c2)c(Nc2cc(C(C)(C)O)ccc2C)nc1=O [Compound I-0776] | 10 to 100 nM |
| COc1cn(Cc2ccc(F)c(Cl)c2)c(Nc2cc(-c3cccnc3)ccc2C)nc1=O [Compound I-0696] | < 10 nM |
| COc1ccc(Nc2nc(=O)c(CCO)cn2Cc2cc(F)c(F)c(F)c2)c(C)c1 [Compound I-1104] | 10 to 100 nM |
| COc1cccc(Nc2nc(=O)c(OC)cn2Cc2cc(F)cc(F)c2)c1Cl [Compound I-0638] | < 10 nM |
| COc1nc2ccc(Nc3nc(=O)c(OC)cn3Cc3cc(F)cc(F)c3)c(C)c2s1 [Compound I-0830] | 10 to 100 nM |
| CCOc1cc(Nc2nc(=O)c(OC)cn2Cc2ccccc2)c(C)cc1C [Compound I-0790] | < 10 nM |
| Cc1cc2c(cc1Nc1nc(=O)c(F)cn1Cc1ccc(F)c(Cl)c1)CCO2 [Compound I-1073] | < 10 nM |
| COc1cn(Cc2cc(F)cc(F)c2)c(Nc2cc(C(C)(C)O)ccc2C)nc1=O [Compound I-0785] | 10 to 100 nM |
| Cc1cc2c(cc1Nc1nc(=O)c(F)cn1Cc1ccc(F)c(F)c1)COC2 [Compound I-1028] | < 10 nM |

| Compound | IC50 |
| --- | --- |
| Cn1ccc2c(Nc3nc(=O)c(F)cn3Cc3cc(F)cc(F)c3)cccc21 [Compound I-1021] | < 10 nM |
| COc1cn(Cc2ccc(F)c(Cl)c2)c(Nc2cc(-c3cccn(C)c3=O)ccc2C)nc1=O [Compound I-0588] | < 10 nM |
| COc1cn(Cc2ccccc2)c(Nc2c(C)cccc2C)nc1=O [Compound I-0724] | 100 to 500 nM |
| Cc1cc2c(cc1Nc1nc(=O)c(CCO)cn1Cc1cc(F)c(F)c(F)c1)COC2 [Compound I-1127] | 10 to 100 nM |
| COc1cn(Cc2ccccc2)c(Nc2cc(C)c(OC(F)F)cc2C)cc1=O [Compound I-0951] | 100 to 500 nM |
| COc1cn(Cc2cc(F)cc(F)c2)c(Nc2cc3c(cc2C)OCCC3)nc1=O [Compound I-0913] | 10 to 100 nM |
| COc1cn(Cc2ccc(F)c(F)c2)c(Nc2cc3ncccc3cc2C)nc1=O [Compound I-0772] | 10 to 100 nM |
| COc1cccc(Nc2nc(=O)c(OC)cn2Cc2ccc(F)c(Cl)c2)c1Cl [Compound I-0683] | < 10 nM |
| COc1cn(Cc2ccc(F)c(F)c2)c(Nc2ccccc2C)nc1=O [Compound I-0685] | 10 to 100 nM |
| Cc1cc2c(cc1Nc1nc(=O)c(F)cn1Cc1cc(F)cc(F)c1)COC2 [Compound I-1027] | 10 to 100 nM |
| CCc1cc2c(cc1Nc1nc(=O)c(OC)cn1Cc1ccc(F)c(Cl)c1)OCO2 [Compound I-0688] | < 10 nM |
| COc1cn(Cc2cc(F)cc(Cl)c2)c(Nc2cc(-c3ncco3)ccc2C)nc1=O [Compound I-0668] | 10 to 100 nM |
| COc1cn(Cc2ccc(F)c(C(F)(F)F)c2)c(Nc2cccc(Cl)c2C)nc1=O [Compound I-0635] | 10 to 100 nM |
| Cc1cc2cc(Nc3nc(=O)c(F)cn3Cc3ccc(F)c(Cl)c3)c(C)cc2[nH]1 [Compound I-1055] | 10 to 100 nM |
| COc1cn(Cc2cc(F)cc(F)c2)c(Nc2cc(-c3nnco3)ccc2C)nc1=O [Compound I-0599] | 10 to 100 nM |
| COc1cn(Cc2cc(F)cc(Cl)c2)c(Nc2cc(-c3ccnn3C)ccc2C)nc1=O [Compound I-0734] | 10 to 100 nM |
| COc1cc(Nc2nc(=O)c(F)cn2Cc2ccc(F)c(Cl)c2)c(C)cc1F [Compound I-1051] | < 10 nM |
| COc1cn(Cc2cc(F)cc(Cl)c2)c(Nc2cc(-c3ccc(C)o3)ccc2C)nc1=O [Compound I-0768] | 10 to 100 nM |
| COc1ccc(Nc2nc(=O)cnn2Cc2ccc(Cl)c(F)c2)c(C)c1 [Compound I-1268] | 10 to 100 nM |
| COc1ncccc1-c1ccc(C)c(Nc2nc(=O)c(OC)cn2Cc2cc(F)cc(F)c2)c1 [Compound I-0831] | < 10 nM |
| COCc1ccc(C)c(Nc2nc(=O)c(F)cn2Cc2ccc(F)c(F)c2)c1 [Compound I-1084] | < 10 nM |
| COc1ccc(Nc2nc(=O)c(C(N)=O)cn2Cc2cc(F)c(F)c(F)c2)c(C)c1 [Compound I-1100] | 10 to 100 nM |
| Cc1nc2ccc(Nc3nc(=O)c(F)cn3Cc3cc(F)c(F)c(F)c3)c(C)c2s1 [Compound I-1199] | < 10 nM |
